Reference: PubChem BioAssay AID1918996 (Molecular Pharmacology Branch, DTP, NCI, 2023)

Test system: 349418-098-R-PDC complex spheroid growth
Assay: Anticancer human tumor 349418-098-R-PDC patient-derived lung adenocarcinoma cell line growth inhibition [AhR]
Conditions: for IC50: curve of first compound; for viability, T/C: stronger effect = lower value
Text: Multicellular complex tumor spheroid response to aryl hydrocarbon receptor antagonists in combination with a variety of drugs and investigational agents in selected tumor cell lines
The current study was undertaken to assess response to aryl hydrocarbon receptor antagonists in combination with standard-of-care drugs and investigational agents in solid tumor complex spheroid models. Complex spheroids include a stromal component modeled by human endothelial cells (HUVEC) and fibroblasts modeled by human mesenchymal stem cells (MSCs). The concentration ranges selected for each drug and investigational agent were based upon clinically achievable concentrations if the clinical Cmax of the agent was known.
Compounds. The drugs and investigational agents: BAY 2416964 (NSC825713), GNF351 (NSC835774), CH-223191 (NSC835775), CPI-455 (NSC825282), aza-TdCyd (NSC777586), decitabine (NSC127716), belinostat (NSC758774), entinostat (NSC756642), pevonedistat (NSC761192), tazemetostat (NSC777109), talazoparib (NSC765396), olaparib (NSC753686), selinexor (NSC780203), nedisertib (M3814, NSC802822), bortezomib (NSC756655), venetoclax (NSC766270), doxorubicin (NSC123127), elimusertib (BAY189344, NSC800525), ceralasertib (AZD6738, NSC777638), TAK-243 (NSC785004), alisertib (NSC759677), etoposide (NSC141540), topotecan (NSC609699), eribulin (NSC707389), gemcitabine (NSC613327), carboplatin (NSC241240), cisplatin (NSC119875), and SN-38 (NSC673596) were obtained from the National Cancer Institute (NCI) Developmental Therapeutics Program Chemical Repository (32). The FDA-approved anticancer drug set is available from the Developmental Therapeutics Program at https://dtp.cancer.gov/organization/dscb/obtaining/available plates.htm. […] The stock solutions were prepared in dimethyl sulfoxide (DMSO, Sigma-Aldrich, St. Louis, MO, cat. D2650), except for the platinum compounds which were prepared in saline (Quality Biological, Gaithersburg, MD, cat. 114-055-101), at 800-fold the tested concentration and stored at -70 degrees C prior to their use. All drugs and investigational agents were tested over a range starting from a high concentration at or near the clinical Cmax and decreasing in half-log increments. If the clinical Cmax for an agent had not been determined, the highest concentration tested was 10 microM (Table 1).
Cell Culture. All cells were maintained in an incubator at 37 degrees C and 5% CO2 with 95% humidity. The PDC lines were cultured according to standard operating procedures established by the NCI PDMR (https://pdmr.cancer.gov). Briefly, all PDCs were thawed and cultured in Matrigel-coated flasks prepared with a working solution of 1X Ham's F-12 nutrient mix, without supplementation (Invitrogen, Waltham, MA, cat. 11765054), 100 U/mL penicillin-streptomycin (Invitrogen, cat. 15140122), and 2.5% Matrigel (Corning Inc., Corning, NY, cat. 354248) for the first three passages. All PDCs were cultured in complete DMEM/F-12 media containing advanced DMEM/F-12 (Invitrogen, cat. 12634028), 4.9% defined fetal bovine serum, heat inactivated (HyClone Laboratories Inc., Logan, UT, cat. SH30070.03HI), 389 ng/mL hydrocortisone (Sigma-Aldrich, cat. H4001), 9.7 ng/mL human EGF recombinant protein (Invitrogen, cat. PHG0313), 23.4 microg/mL adenine (Sigma-Aldrich, cat. A2786), 97.3 U/mL penicillin-streptomycin (Invitrogen, cat. 15140122), 1.9 mM L-glutamine (Invitrogen, cat. 25030081), and 9.7 microM Y-27632 dihydrochloride (Tocris Bioscience, Bristol, United Kingdom, cat. 1254). The PDCs were cultured in complete DMEM/F12 media without 10 microM Y-27632 dihydrochloride for at least two passages prior to the screen. The established cell lines NCI-H1341 and […] were cultured in DMEM/F-12, HEPES (Invitrogen, cat. 11330032), 5% defined fetal bovine serum (HyClone Laboratories Inc., cat. SH30070.03), ITS premix universal culture supplement [insulin (5 microg/mL), transferrin (5 microg/mL), and selenious acid (5 ng/mL)] […]

[1] = second compound 0.1 µM, first compound 0.000949 µM
[2] = second compound 0.1 µM, first compound 0.003 µM
[3] = second compound 0.1 µM, first compound 0.00949 µM
[4] = second compound 0.1 µM, first compound 0.03 µM
[5] = second compound 0.1 µM, first compound 0.0949 µM
[6] = second compound 0.1 µM, first compound 0.3 µM
[7] = second compound 0.316 µM, first compound 0.000949 µM
[8] = second compound 0.316 µM, first compound 0.003 µM
[9] = second compound 0.316 µM, first compound 0.00949 µM
[10] = second compound 0.316 µM, first compound 0.03 µM
[11] = second compound 0.316 µM, first compound 0.0949 µM
[12] = second compound 0.316 µM, first compound 0.3 µM
[13] = second compound 1 µM, first compound 0.000949 µM
[14] = second compound 1 µM, first compound 0.003 µM
[15] = second compound 1 µM, first compound 0.00949 µM
[16] = second compound 1 µM, first compound 0.03 µM
[17] = second compound 1 µM, first compound 0.0949 µM
[18] = second compound 1 µM, first compound 0.3 µM
[19] = second compound 3.16 µM, first compound 0.000949 µM
[20] = second compound 3.16 µM, first compound 0.003 µM
[21] = second compound 3.16 µM, first compound 0.00949 µM
[22] = second compound 3.16 µM, first compound 0.03 µM
[23] = second compound 3.16 µM, first compound 0.0949 µM
[24] = second compound 3.16 µM, first compound 0.3 µM
[25] = second compound 10 µM, first compound 0.000949 µM
[26] = second compound 10 µM, first compound 0.003 µM
[27] = second compound 10 µM, first compound 0.00949 µM
[28] = second compound 10 µM, first compound 0.03 µM
[29] = second compound 10 µM, first compound 0.0949 µM
[30] = second compound 10 µM, first compound 0.3 µM
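Also: spheroids exposed to agents for seven days before luminescence viability read.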
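For viability, T/C in this document: spheroids also contain HUVEC endothelial cells and human MSC stroma.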

| SMILES | IC50 (second compound 0.1 µM) [nM] | IC50 (second compound 0.316 µM) [nM] | IC50 (second compound 1 µM) [nM] | IC50 (second compound 3.16 µM) [nM] | IC50 (second compound 10 µM) [nM] | viability, T/C [1] [%] | viability, T/C [2] [%] | viability, T/C [3] [%] | viability, T/C [4] [%] | viability, T/C [5] [%] | viability, T/C [6] [%] | viability, T/C [7] [%] | viability, T/C [8] [%] | viability, T/C [9] [%] | viability, T/C [10] [%] | viability, T/C [11] [%] | viability, T/C [12] [%] | viability, T/C [13] [%] | viability, T/C [14] [%] | viability, T/C [15] [%] | also measured |
| --- | --- | --- | --- | --- | --- | --- | --- | --- | --- | --- | --- | --- | --- | --- | --- | --- | --- | --- | --- | --- | --- |
| Nc1ncn(C2CC(O)C(CO)S2)c(=O)n1 (stereo not given) + CC(CO)NC(=O)c1cc(-c2ccc(Cl)cc2)nn(-c2cnn(C)c2)c1=O | 87.6 | 32.4 | 45.7 | 24.9 | 19.9 | 86.5 | 85.5 | 56.2 | 62.2 | 60.8 | 31.9 | 72.6 | 118 | 68.8 | 52.6 | 47.8 | 27.4 | 96.4 | 68.9 | 90.5 | viability, T/C [16]: 53.7%; viability, T/C [17]: 37.8%; viability, T/C [18]: 21.4%; viability, T/C [19]: 86.1%; viability, T/C [20]: 58%; viability, T/C [21]: 66.5%; viability, T/C [22]: 47%; viability, T/C [23]: 39.9%; viability, T/C [24]: 24.2%; viability, T/C [25]: 53.5%; viability, T/C [26]: 71.8%; viability, T/C [27]: 60%; viability, T/C [28]: 43.1%; viability, T/C [29]: 33.3%; viability, T/C [30]: 24.5% |
| CC(C)CC(NC(=O)C(Cc1ccccc1)NC(=O)c1cnccn1)B(O)O (stereo not given) + CC(CO)NC(=O)c1cc(-c2ccc(Cl)cc2)nn(-c2cnn(C)c2)c1=O | < 0.949 | < 0.949 | < 0.949 | < 0.949 | < 0.949 | 23.1 | 6.06 | 3.66 | 2.47 | 2.75 | 1.27 | 24.2 | 6.19 | 4.09 | 1.94 | 2.38 | 1.96 | 22.5 | 5.68 | 2.71 | viability, T/C [16]: 2.61%; viability, T/C [17]: 1.69%; viability, T/C [18]: 1.84%; viability, T/C [19]: 21.1%; viability, T/C [20]: 6.77%; viability, T/C [21]: 2.56%; viability, T/C [22]: 1.42%; viability, T/C [23]: 1.44%; viability, T/C [24]: 1.95%; viability, T/C [25]: 23.2%; viability, T/C [26]: 6.76%; viability, T/C [27]: 2.77%; viability, T/C [28]: 1.65%; viability, T/C [29]: 1.33%; viability, T/C [30]: 1.68% |
